Tested on: sphingomyelin in the cerebral cortex
Test: Efficacy evaluation test using sphingomyelin accumulation model mouse (Niemann-Pick disease type A and type B model)
Type: in vivo, mouse (C57BL/6J Jcl)
Conditions: for Amount of sphingomyelin per wet weight of cerebral cortex: twice daily, 2 wk, imipramine hydrochloride 40 mg/kg i.p. once daily, 4 wk, male mouse, Mean ± S.D., N = 7-8
Text: Test Example 4 Efficacy Evaluation Test Using Sphingomyelin Accumulation Model Mouse as Niemann-Pick Disease Type A and Type B Model
A phase 1b clinical trial on Niemann-Pick disease type B which develops by abnormality in acid sphingomyelinase has reported that the administration of recombinant acid sphingomyelinase (olipudase alfa) decreased sphingomyelin accumulated in a peripheral organ such as the liver, and this led to the amelioration of the pathological condition (Am J Surg Pathol. 2016; 40: 1232).
Also, the intraperitoneal administration of an acid sphingomyelinase inhibitor, imipramine hydrochloride, to a mouse increases its enzyme substrate, sphingomyelin, not only in a peripheral organ such as the liver but in the central nervous system such as the cerebrum, and the mouse obtained by such administration is recognized as an animal model that can induce sphingomyelin accumulation, as in human Niemann-Pick disease type A and type B, in each tissue (Gen Physiol Biophys 2016; 35: 195).
Accordingly, the compound of the present invention was evaluated as a SPT inhibitor for its sphingomyelin-lowering effect on Niemann-Pick disease type B, and Niemann-Pick disease type A, which also accumulates sphingomyelin in the central nervous system such as the cerebral cortex, by the following method. Imipramine hydrochloride (Wako Pure Chemical Industries, Ltd.) was dissolved at a concentration of 2 mg/mL in saline and intraperitoneally administered at a dose of 40 mg/kg to each 6-week-old male C57BL/6J Jcl mouse (CLEA Japan, Inc.) for 2 weeks once daily. […] In this operation, the intraperitoneal administration of imipramine hydrochloride was also carried out once daily concurrently therewith. After the completion of the administration of the SPT inhibitor, the cerebrum was excised from the mouse cranium and separated into the cortex and the medulla. The cortical portion was rapidly frozen in liquid nitrogen and then disrupted using ShakeMaster Auto (Bio-Medical Science Co., Ltd.) under freezing. 2-Propanol (containing 0.002% of BHT (dibutylhydroxytoluene as a fat and oil antioxidant) was added thereto in an amount of 9 mL/g of wet weight, and lipids in the cerebral cortex were extracted by suspension using ShakeMaster Auto again. The concentration of sphingomyelin contained in the 2-propanol was measured using a sphingomyelin assay kit (Abcam, Inc., ab138877) based on the fluorescence quantification method. EnVision 2102 Multilabel Reader (PerkinElmer Inc.) was used in fluorescence measurement.
From this, it was able to be confirmed that a model mimicking Niemann-Pick disease type A and type B which accumulate sphingomyelin in the cerebral cortex was established by the intraperitoneal administration of imipramine hydrochloride for 4 weeks.

Cn1nc(C(=O)N[C@@H]2CCN(C(=O)c3cc(Cl)c4nccnc4c3)C[C@@H]2c2ccc(F)cc2)cc1C(F)(F)F [Example 1, N-((3S,4R)-1-((8-Chloroquinoxalin-6-yl)carbonyl)-3-(4-fluorophenyl)piperidin-4-yl)-1-methyl-5-(trifluoromethyl)-1H-pyrazole-3-carboxamide]
Amount of sphingomyelin per wet weight of cerebral cortex (group 3: 0.3 mg/kg oral): 3.282 ± 0.260 µg/g
Amount of sphingomyelin per wet weight of cerebral cortex (group 4: 1.0 mg/kg oral): 2.972 ± 0.635 µg/g
Amount of sphingomyelin per wet weight of cerebral cortex (group 5: 3.0 mg/kg oral): 2.952 ± 0.219 µg/g
effect of suppressing sphingomyelin accumulation in the cerebral cortex (oral, 2 weeks twice daily, single dose 0.3, 1.0 and 3.0 mg/kg, imipramine model mouse, p<0.025, one-tailed Williams' test): dose-dependent significant effect of suppressing sphingomyelin accumulation in the cerebral cortex
